Experimental findings from ChEMBL document CHEMBL3739371, “Small molecules enhance functional O-mannosylation of Alpha-dystroglycan” (Bioorg Med Chem, 2015) are described below.

Activity calls are given as the source filed them. The rule behind the calls is not given here.

The target of experiment [1] is T1, Dystroglycan (Cricetulus griseus) (UniProt G3H8F4).
T1 sequence (whole entry): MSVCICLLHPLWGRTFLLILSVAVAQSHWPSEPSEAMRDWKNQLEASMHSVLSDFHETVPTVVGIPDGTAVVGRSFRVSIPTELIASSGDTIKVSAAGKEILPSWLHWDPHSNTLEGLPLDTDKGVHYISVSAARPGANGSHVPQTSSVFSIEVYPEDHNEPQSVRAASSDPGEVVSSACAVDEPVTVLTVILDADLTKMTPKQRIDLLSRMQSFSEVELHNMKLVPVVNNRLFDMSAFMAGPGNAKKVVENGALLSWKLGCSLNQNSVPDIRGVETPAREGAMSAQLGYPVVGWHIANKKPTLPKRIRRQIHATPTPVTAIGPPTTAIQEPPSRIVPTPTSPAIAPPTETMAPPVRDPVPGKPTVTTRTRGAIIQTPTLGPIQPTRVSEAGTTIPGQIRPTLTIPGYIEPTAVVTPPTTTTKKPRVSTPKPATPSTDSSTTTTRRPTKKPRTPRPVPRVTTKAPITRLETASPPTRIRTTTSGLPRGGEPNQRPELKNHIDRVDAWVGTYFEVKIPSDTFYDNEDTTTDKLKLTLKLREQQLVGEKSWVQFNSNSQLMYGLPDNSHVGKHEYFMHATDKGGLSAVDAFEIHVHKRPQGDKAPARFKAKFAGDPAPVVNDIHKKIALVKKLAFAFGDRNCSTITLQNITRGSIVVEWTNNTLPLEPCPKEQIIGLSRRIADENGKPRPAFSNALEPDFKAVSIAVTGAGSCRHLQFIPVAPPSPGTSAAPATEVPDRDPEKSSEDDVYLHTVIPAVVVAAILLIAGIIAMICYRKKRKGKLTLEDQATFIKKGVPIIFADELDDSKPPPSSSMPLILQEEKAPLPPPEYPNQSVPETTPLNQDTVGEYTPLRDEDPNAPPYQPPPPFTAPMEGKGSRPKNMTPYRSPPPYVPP
The experiment is described as follows: Increase of functional O-mannosylation of alpha-dystroglycan in Chinese hamster pro5 cells expressing LARGE after 48 hrs by alpha-screen assay. The format is cell-based. (In Alpha technology, singlet oxygen from a donor bead excites a nearby acceptor bead.)

The target in experiment [2] is T2, Dystroglycan 1 (Mus musculus) (UniProt Q62165).
T2 sequence (whole entry): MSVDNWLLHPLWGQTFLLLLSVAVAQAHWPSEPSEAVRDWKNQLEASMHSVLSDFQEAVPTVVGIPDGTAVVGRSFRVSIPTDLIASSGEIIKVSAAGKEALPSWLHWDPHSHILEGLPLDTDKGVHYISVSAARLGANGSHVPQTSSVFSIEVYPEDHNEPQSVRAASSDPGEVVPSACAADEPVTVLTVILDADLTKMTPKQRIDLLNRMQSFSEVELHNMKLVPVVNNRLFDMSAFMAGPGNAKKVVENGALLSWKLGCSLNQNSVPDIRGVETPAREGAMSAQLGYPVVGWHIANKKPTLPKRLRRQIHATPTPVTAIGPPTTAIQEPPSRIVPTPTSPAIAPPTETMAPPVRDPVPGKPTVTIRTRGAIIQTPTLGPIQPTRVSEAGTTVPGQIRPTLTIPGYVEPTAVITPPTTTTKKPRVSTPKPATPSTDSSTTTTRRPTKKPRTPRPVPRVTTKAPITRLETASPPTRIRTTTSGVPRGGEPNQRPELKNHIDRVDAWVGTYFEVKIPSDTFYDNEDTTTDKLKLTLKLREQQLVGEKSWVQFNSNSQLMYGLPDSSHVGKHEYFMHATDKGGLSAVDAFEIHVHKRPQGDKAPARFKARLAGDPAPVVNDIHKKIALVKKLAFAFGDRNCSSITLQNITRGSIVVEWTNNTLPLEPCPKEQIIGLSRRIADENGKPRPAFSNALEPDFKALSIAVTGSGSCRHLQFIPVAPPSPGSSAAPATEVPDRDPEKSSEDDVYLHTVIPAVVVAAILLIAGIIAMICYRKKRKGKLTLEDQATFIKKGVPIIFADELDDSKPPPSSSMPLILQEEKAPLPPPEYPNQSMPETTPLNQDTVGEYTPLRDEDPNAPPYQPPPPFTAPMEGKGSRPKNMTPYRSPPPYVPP
The experiment is described as follows: Increase of functional O-mannosylation of alpha-dystroglycan in mouse C2C12 cells expressing LARGE after 48 hrs by alpha-screen assay. The format is cell-based.

The target in experiment [3] is T3, Dystroglycan 1 (Homo sapiens) (UniProt Q14118).
T3 sequence (whole entry): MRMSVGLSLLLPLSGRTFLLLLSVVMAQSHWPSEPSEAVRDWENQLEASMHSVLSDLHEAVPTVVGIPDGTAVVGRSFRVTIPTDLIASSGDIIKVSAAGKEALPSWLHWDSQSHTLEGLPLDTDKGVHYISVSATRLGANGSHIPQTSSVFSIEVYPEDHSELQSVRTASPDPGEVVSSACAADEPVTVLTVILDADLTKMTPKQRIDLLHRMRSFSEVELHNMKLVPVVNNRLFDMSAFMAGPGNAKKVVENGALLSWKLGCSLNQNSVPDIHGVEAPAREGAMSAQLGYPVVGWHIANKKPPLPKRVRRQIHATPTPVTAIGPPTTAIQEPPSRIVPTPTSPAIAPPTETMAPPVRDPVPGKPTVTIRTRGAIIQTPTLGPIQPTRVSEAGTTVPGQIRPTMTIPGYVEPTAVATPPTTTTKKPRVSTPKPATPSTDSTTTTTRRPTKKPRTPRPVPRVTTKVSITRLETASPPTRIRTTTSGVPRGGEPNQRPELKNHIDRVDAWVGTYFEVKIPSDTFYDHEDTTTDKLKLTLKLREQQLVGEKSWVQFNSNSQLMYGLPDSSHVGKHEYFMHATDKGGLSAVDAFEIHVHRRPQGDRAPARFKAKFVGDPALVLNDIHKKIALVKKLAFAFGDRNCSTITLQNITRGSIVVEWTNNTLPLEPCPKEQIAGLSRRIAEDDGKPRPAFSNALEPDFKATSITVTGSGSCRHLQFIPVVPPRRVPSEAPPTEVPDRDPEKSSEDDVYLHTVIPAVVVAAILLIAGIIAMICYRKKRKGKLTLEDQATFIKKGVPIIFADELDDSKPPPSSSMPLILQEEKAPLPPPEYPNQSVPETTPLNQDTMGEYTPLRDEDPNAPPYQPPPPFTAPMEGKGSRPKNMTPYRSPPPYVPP
The experiment is described as follows: Increase of functional O-mannosylation of alpha-dystroglycan in human myotubes expressing myogenin after 48 hrs by alpha-screen assay.

Experiment [4] concerns the target T3, Dystroglycan 1 (Homo sapiens). The experiment is described as follows: Increase of functional O-mannosylation of alpha-dystroglycan in human myoblasts after 48 hrs by immunofluorescence assay.
For experiment [5] the target is unchanged. The experiment in a line: Increase of functional O-mannosylation of alpha-dystroglycan in human myotubes after 48 hrs by immunofluorescence assay.
Experiment [6] has as its target T2, Dystroglycan 1 (Mus musculus). The experiment in a line: Increase of functional O-mannosylation of alpha-dystroglycan in mouse C2C12 cells expressing myogenin after 48 hrs by immunofluorescence assay. The format is cell-based.
Experiment [7] shares this target. The experiment is described as follows: Increase of functional O-mannosylation of alpha-dystroglycan in mouse C2C12 cells after 48 hrs by immunofluorescence assay. The format is cell-based.
The target in experiment [8] is T1, Dystroglycan (Cricetulus griseus). The experiment is described as follows: Increase of functional O-mannosylation of alpha-dystroglycan in Chinese hamster Lec15.2 cells after 24 hrs by fluorescence assay.
The target is the same in experiment [9]. The experiment is described as follows: Increase of functional O-mannosylation of alpha-dystroglycan in Chinese hamster pgsl-208 cells after 24 hrs by fluorescence assay.
The target is the same in experiment [10]. The experiment is described as follows: Increase of functional O-mannosylation of alpha-dystroglycan in Chinese hamster B421 cells after 24 hrs by fluorescence assay relative to control. It is filed as cell-based.
The target in experiment [11] is T3, Dystroglycan 1 (Homo sapiens). The experiment is described as follows: Increase of functional O-mannosylation of alpha-dystroglycan in FKRP-deficient human myotubes after 24 hrs by fluorescence assay.

In experiment [1], `CCC(c1nnnn1Cc1cccs1)N1CCN(c2nc3cc(N)cc(F)c3s2)CC1` (stereo unspecified) registered an EC1.5 of 1.2 µM. The fold change (FC) in [2] is 8; in [10] it was less than 6. For the same molecule, the result in [3], in [6], in [7] and in experiment [11] was Active. In addition, the outcome in [4], in experiment [5], in experiment [8] and in experiment [9] was inactive.
